Measurements from ChEMBL document CHEMBL1129827, “Discovery of imidazo[1,2-c]pyrimidin-5(6H)-one heterosubstituted nucleoside analogues with potent activity against human hepatitis B virus in vitro” (Bioorg Med Chem Lett, 1997).
Active and inactive are the calls of the source. The calls are words filed in the database; no cut-off is given here.

Tests used:
MT4 [1] = assay: Compound was evaluated for the inhibition of replication of HIV-1 in MT-4 (human T helper) cells up to 300 uM; Not active; type: functional, cell-based
[2] = Selectivity index (SI) is the ratio of CC50/EC90 for HBV virion; type: functional
[3] = Compound concentration that cause 50% cytotoxicity was determined by neutral red uptake in 2.2.15 Cells; type: cell-based, HepG2 2.2.15; details: human
HepG2 [4] = assay: Compound concentration required to inhibit 50% of extracellular replicating HBV (Hepatitis B virus) virion in human hepatoma cell line 2.2.15; type: functional, cell-based
HepG2 [5] = assay: Compound concentration required to inhibit 90% of intracellular replicating HBV (Hepatitis B virus) RI in human hepatoma cell line 2.2.15; type: functional
HepG2 [6] = assay: Compound concentration required to inhibit 90% of extracellular replicating HBV (Hepatitis B virus) virion in human hepatoma cell line 2.2.15; type: functional
HepG2 [7] = assay: Compound concentration required to inhibit 50% of intracellular replicating HBV (Hepatitis B virus) RI in human hepatoma cell line 2.2.15; type: functional, cell-based
[8] = Selectivity index (SI) is the ratio of CC50/EC90 for HBV RI; type: functional
MT4 [9] = assay: Compound was evaluated for the inhibition of replication of HIV-1 in MT-4 (human T helper) cells up to 300 uM; not active; type: functional, cell-based

SMILES | EC50 (HepG2 [4]) [µM] | EC90 (HepG2 [5]) [µM] | EC90 (HepG2 [6]) [µM] | EC50 (HepG2 [7]) [µM] | Activity (MT4 [1]) | SI [2] | CC50 [3] [µM] | SI [8] | Activity (MT4 [9])
O=c1n(C2CSC(CO)O2)ccc2nc(-c3ccc([N+](=O)[O-])cc3)cn12 (stereo not given) | 4.8 |  |  |  | inactive | > 5.6 | > 26.7 |  | 
O=c1n([C@H]2CO[C@@H](CO)O2)cc(F)c2nc(CO)cn12 | 15.1 | 66.6 | 33.3 | 29.1 |  | 36 | 1060 | 16 | 
O=c1n([C@H]2CO[C@H](CO)O2)cc(F)c2nc(CO)cn12 | > 105 |  | > 105 |  |  |  | 1390 |  | 
CCOC(=O)c1cn2c(=O)n(C3CSC(CO)O3)ccc2n1 (stereo not given) | > 90 |  | > 90 |  |  |  | > 90 |  | 
O=c1n(C2CSC(CO)O2)ccc2nc(CO)cn12 (stereo not given) | 77.7 |  | 276 |  |  | 1.7 | 456 |  | inactive
O=c1n([C@H]2CO[C@H](CO)O2)ccc2nc(-c3ccc([N+](=O)[O-])cc3)cn12 | 12.5 |  | 108 |  | inactive | 5.7 | 517 |  | 

Now those with a lower EC50 (HepG2 [4]), led by results:

EC50 (HepG2 [4]) [µM] | EC90 (HepG2 [5]) [µM] | EC90 (HepG2 [6]) [µM] | EC50 (HepG2 [7]) [µM] | SMILES | Activity (MT4 [1]) | SI [2] | CC50 [3] [µM] | SI [8] | Activity (MT4 [9])
4.2 |  | 25.2 |  | O=c1n(C2COC(CO)O2)ccc2nc(-c3ccc(F)cc3)cn12 (stereo not given) |  | 34 | 850 |  | 
3.7 | 25 | 8.8 | 12.8 | O=c1n([C@H]2CO[C@H](CO)O2)cc(F)c2nc(-c3ccc([N+](=O)[O-])cc3)cn12 | inactive | 46 | 587 | 24 | 
2.3 |  | 10.9 |  | O=c1n([C@H]2CO[C@@H](CO)O2)ccc2nc(-c3ccc([N+](=O)[O-])cc3)cn12 |  | 45 | 486 |  | 
2 |  | 10.5 |  | O=c1n(C2COC(CO)O2)ccc2nc(CO)cn12 (stereo not given) |  | 59 | 618 |  | 
1.9 | 13.6 | 5.9 | 7.7 | O=c1n([C@H]2CO[C@@H](CO)O2)cc(F)c2nc(-c3ccc([N+](=O)[O-])cc3)cn12 |  | 180 | 1390 | 103 | 
1.5 | 10 | 6.9 | 3.2 | Nc1ccn([C@H]2CC[C@@H](CO)O2)c(=O)n1 [ZALCITABINE] |  |  | 233 | 23 | 
